Source: PMC10574475, “Development and Validation of a UHPLC–MS/MS Method for the Quantification of a Novel PYGB Inhibitor in Plasma: Application to Pharmacokinetic Studies” (Molecules, 2023)
“Also recorded” adds a separate entry of the source. Where two headings read alike, the source gives them in different places.

Legend:
[1] = Brain tissue distribution after intravenous administration; type: in vivo, SD rats; conditions: rat; for brain tissue concentration: after injection
Procedure: Brain tissue homogenate samples for analysis were prepared by adding 9 volumes of homogenate solution (MeOH/15 mMPBS (1: 2, v/v)) to one volume of brain homogenate and diluting it 10-fold. Firstly, an aliquot of 40 μL of the brain homogenate sample to be tested (diluted sample), calibration standards, QC and diluted QC, a zero sample (with internal standard) and a blank sample (without internal standard) were added to the 96-well plate. Then, each sample (except blank samples) was quenched with 400 μL of IS1 (blank samples were quenched with 400 μL of acetonitrile), and the mixture was vortexed at 800 rpm for 10 min, followed by centrifugation at 3220× g at 4 °C for 15 min. Finally, a 50 μL aliquot of the supernatant was transferred to another clean 96-well plate and centrifuged at 3220× g for 15 min at 4 °C, then injected directly into the sample for UHPLC–MS/MS analysis.
(§1) Liquid chromatography conditions. UHPLC–MS/MS analyses were performed on an Agilent 1260 ultra-high performance liquid chromatograph (Agilent Technologies Co., Ltd., Santa Clara, CA, USA) and a QTRAP 5500 triple quadrupole tandem mass spectrometer (AB Sciex Pte. Ltd., Framingham, MA, USA). An ACQUITY UPLC BEH C18 column (2.1 × 50 mm, 1.7 µm) was used at […] with a flow rate of 0.3 mL/min and an injection volume of 2 µL. The analysis time was 5 min using an isocratic elution procedure of methanol and water (4:1, v/v).
In the preliminary brain tissue distribution study, 18 healthy male SD rats were injected with 3.2 mg/kg of compound 1 intravenously into the tail, and the animals were euthanized by CO2 inhalation at 0.25, 2 and 8 h after the administration of compound 1, respectively. Blood and brain tissue were then collected separately from each animal. Brain tissue was homogenized on wet ice using homogenizing buffer (MeOH/15 mM PBS = 1/2) at a ratio of 1:9 (1 g tissue to 9 mL buffer). The tissue homogenate was divided into two parts, 0.8 mL was used for analysis and the rest was discarded.
(§2) The data was processed using Origin 2021 to plot the drug concentration–time curve in plasma, and DAS 2.0 software was used to calculate the pharmacokinetic parameters by the […] statistical moment method, and the results of the experiments were expressed as mean ± standard deviation. Differences between groups were analyzed using SPSS 20.0, with p < 0.05 indicating statistical significance.

[2] = Plasma pharmacokinetics after intravenous administration (UHPLC–MS/MS); type: in vivo, SD rats; conditions: rat plasma; for AUC(0-inf) / AUC(0-t) / Cmax / Vd / clearance / half-life: both sexes, SD
Procedure: 50 μL of the plasma to be tested was aspirated precisely and placed in a 1.5 mL centrifuge tube. Then 5 μL of internal standard working solution and 150 μL of methanol were added sequentially to the centrifuge tube, and the tube was vortexed for 60 s and centrifuged at 6147× g for 10 min. Finally, 100 μL of supernatant was taken and added to the injection vial for quantitative analysis by UHPLC–MS/MS.
as §1
In the plasma pharmacokinetic study, 30 healthy SD rats (half male and half female) were selected and randomly divided into 3 groups of 10 rats each. Three groups of SD rats were injected with a single dose of compound 1 (0.8 mg/kg, 1.6 mg/kg, 3.2 mg/kg) by tail vein, respectively. At 0.084, 0.25, 1, 2, 4, 6, 8, 12, 24 h after administration, 0.5 mL of blood was collected from the fundus venosus in heparin-anticoagulated tubes, and the plasma was separated by centrifugation at 6149× g for 10 min, and then placed in 1.5 mL Eppendorf tubes and stored in the refrigerator at −80 °C for measurement.
as §2

[3] = Stability of compound 1 in rat plasma under different storage conditions; type: in vitro ADME
Procedure: Stability was assessed under the four conditions (storage at room temperature for 12 h, […] for 24 h, refrigerator storage at −20 °C for 10 days, and freeze-thawing at −80 °C to 25 °C for 3 cycles) using the QC working solution (2.5, 800 ng/mL), and six preparations were made in parallel for each concentration. The stability of compound 1 in rat plasma was evaluated by calculating the peak area ratio (compound 1/IS) in plasma sample.

PYGB = test system: PYGB; set-up: method as in PMID 36234871, PMID 36838691, PMID 36108587; conditions: previous studies; read-out: IC50 of PYGB inhibition; cited from earlier work
[4] = male, Sprague-Dawley (SD), brain tissue, 3.2 mg/kg iv
[5] = 3.2 mg/kg iv, 0.25 h, 3.2 mg/kg

- AUC0–∞ ([1]; brain tissue, 3.2 mg/kg iv): 668 ng·h/g
- concentration at 0.25 h ([1]; male, SD, brain, iv, 3.2 mg/kg, 3.2 mg/kg iv, 0.25 h, read-out: CBrain (concentration in brain tissue)): 440 ± 19.1 ng/g
- concentration at 2 h ([1]; male, SD, brain, iv, 3.2 mg/kg, 3.2 mg/kg iv, 2 h, read-out: CBrain (concentration in brain tissue)): 111 ± 23.9 ng/g
- concentration at 8 h ([1]; male, SD, brain, iv, 3.2 mg/kg, 3.2 mg/kg iv, 8 h, read-out: CBrain (concentration in brain tissue)): 4.17 ± 7.22 ng/g
- Kp at 0.25 h ([1]; male, SD, brain/plasma, iv, 3.2 mg/kg, 3.2 mg/kg iv, 0.25 h, read-out: CBrain/CPlasma ratio): 0.112 ± 0.0185
- Kp at 2 h ([1]; male, SD, brain/plasma, iv, 3.2 mg/kg, 3.2 mg/kg iv, 2 h, read-out: CBrain/CPlasma ratio): 0.112 ± 0.0292
- Kp at 8 h ([1]; male, SD, brain/plasma, iv, 3.2 mg/kg, 3.2 mg/kg iv, 8 h, read-out: CBrain/CPlasma ratio): 0.09 ± 0.148
- concentration at 0.25 h ([1]; male, SD, plasma, iv, 3.2 mg/kg, 3.2 mg/kg iv, 0.25 h, read-out: CPlasma (concentration in plasma)): 4020 ± 677 ng/g
- concentration at 2 h ([1]; male, SD, plasma, iv, 3.2 mg/kg, 3.2 mg/kg iv, 2 h, read-out: CPlasma (concentration in plasma)): 1020 ± 275 ng/g
- concentration at 8 h ([1]; male, SD, plasma, iv, 3.2 mg/kg, 3.2 mg/kg iv, 8 h, read-out: CPlasma (concentration in plasma)): 32.9 ± 14.5 ng/g
- Cmax ([1]; male, SD, plasma, 3.2 mg/kg iv): 4890 ng/g
- Tmax ([1]; male, SD, plasma, 3.2 mg/kg iv): 0 h
- half-life ([1]; male, SD, plasma, 3.2 mg/kg iv): 1.14 h
- Cmax [1, 4]: 440 ng/g
- MRT [1, 4]: 1.65 h
- Tmax [1, 4]: 0.25 h
- half-life [1, 4]: 1.18 h
- MRT ([1]; male, Sprague-Dawley (SD), plasma, 3.2 mg/kg iv): 1.47 h
- AUC0–∞ ([1]; plasma, 3.2 mg/kg iv): 6659 ng·h/g
- CBrain (concentration in brain tissue) [1, 5]: 440.0 ± 19.1 ng/g
- CBrain/CPlasma ratio [1, 5]: 0.11 ± 0.019
- CBrain (concentration in brain tissue) ([1]; 3.2 mg/kg iv, 2 h, 3.2 mg/kg): 111.0 ± 23.9 ng/g
- CBrain/CPlasma ratio ([1]; 3.2 mg/kg iv, 2 h, 3.2 mg/kg): 0.11 ± 0.029
- CBrain (concentration in brain tissue) ([1]; 3.2 mg/kg iv, 8 h, 3.2 mg/kg): 4.2 ± 7.2 ng/g
- brain tissue concentration ([1]; 0.25 h (abstract)): 440 ± 19.1 ng/g
- brain tissue concentration ([1]; 2 h (abstract)): 111 ± 23.9 ng/g
- AUC(0-inf) ([2]; 0.8 mg/kg iv): 900 ± 441 ng·h/mL
- AUC(0-t) ([2]; 0.8 mg/kg iv): 895 ± 440 ng·h/mL
- Cmax ([2]; 0.8 mg/kg iv): 1180 ± 361 ng/mL
- Vd ([2]; 0.8 mg/kg iv): 6.43 ± 3.48 L/kg
- clearance ([2]; 0.8 mg/kg iv): 16.7 mL/min/kg
- half-life ([2]; 0.8 mg/kg iv): 4.56 ± 2.17 h
- AUC(0-inf) ([2]; 1.6 mg/kg iv): 1610 ± 371 ng·h/mL
- AUC(0-t) ([2]; 1.6 mg/kg iv): 1600 ± 372 ng·h/mL
- Cmax ([2]; 1.6 mg/kg iv): 2030 ± 289 ng/mL
- Vd ([2]; 1.6 mg/kg iv): 7.51 ± 6.15 L/kg
- clearance ([2]; 1.6 mg/kg iv): 17.3 mL/min/kg
- half-life ([2]; 1.6 mg/kg iv): 4.8 ± 3.22 h
- AUC(0-inf) ([2]; 3.2 mg/kg iv): 3630 ± 973 ng·h/mL
- AUC(0-t) ([2]; 3.2 mg/kg iv): 3630 ± 970 ng·h/mL
- Cmax ([2]; 3.2 mg/kg iv): 3710 ± 683 ng/mL
- Vd ([2]; 3.2 mg/kg iv): 4.14 ± 1.23 L/kg
- clearance ([2]; 3.2 mg/kg iv): 15.7 mL/min/kg
- half-life ([2]; 3.2 mg/kg iv): 3.08 ± 0.58 h
- Stability, RE ([3]; 2.5 ng/mL, auto-sampler (24 h), 4 °C): 13.81%
- Stability, RE ([3]; 2.5 ng/mL, room temperature (12 h)): 0.50%
- Stability, RE ([3]; 2.5 ng/mL, storage at −20 °C (10 days)): 12.30%
- Stability, RE ([3]; 2.5 ng/mL, thaw and freeze (from −80 °C to 25 °C), 3 cycles): 12.40%
- Stability, RE ([3]; 800 ng/mL, auto-sampler (24 h), 4 °C): −3.20%
- Stability, RE ([3]; 800 ng/mL, room temperature (12 h)): 1.03%
- Stability, RE ([3]; 800 ng/mL, storage at −20 °C (10 days)): −0.65%
- Stability, RE ([3]; 800 ng/mL, thaw and freeze (from −80 °C to 25 °C), 3 cycles): −3.64%
Compound: CCCC1(CCC)NC(=O)c2cc(NC(=O)c3cc4cc(Cl)ccc4[nH]3)ccc2O1 [compound 1, 5-chloro-N-(4-oxo-2,2-dipropyl-3,4-dihydro-2H-benzo[e][1,3]oxazin-6-yl)-1H-indole-2-carboxamide]
- crossing of the blood–brain barrier ([1]; iv): able to cross the blood–brain barrier; also recorded: could quickly cross the blood–brain barrier
- linearity of pharmacokinetics ([2]; iv, dose range 0.8–3.2 mg/kg): linear pharmacokinetic characteristics; also recorded: linear pharmacokinetic profile
- IC50 (PYGB): 90.3 nM
